Data as given in patent US9808434B2, “Compound for treating cancer and diabetes” (CITY OF HOPE, priority 2011, dated 2017).
Entries after “also recorded” stand apart in the source; their conditions may differ.

What was measured:
[1] = tested on: NCI-60 human tumor cell lines; assay: NCI-60 DTP Human Tumor Cell Line Drug Screening; assay type: cell-based; settings: leukemia, NSCLC, colon, CNS, melanoma, ovarian, renal, prostate, breast lines
Text: Moreover, preliminary data from the NCI-60 DTP Human Tumor Cell Line Drug Screening (http://dtp.nci.nih.gov/branches/btb/ivclsp.html) further confirmed the observations on these COH-SR compounds. […] A value of 100 meant no growth inhibition. A value of 20 meant 80% growth inhibition. A value of 0 meant no net growth over the course of the experiment. A value of −40 meant 40% lethality. A value of −100 meant all cells were dead.

[2] = tested on: AMPK; assay: AMPK activation in Hela cells, Western blot; assay type: cell-based; settings: 1 hour, 1, 3 or 5 μM
Experimental: Activation of AMPK was associated with the phosphorylation of the α-subunit on Thr-172 of as assessed using phospho-specific antibodies (FIGS. 10A-B). AMPK activation also leads to the increased phosphorylation of the target protein acetyl-CoA carboxylase (ACC) (FIG. 10B).
Cells of each cell lines (Hela, HL-60, and 3T3-L1) were treated for 1 hour with a test compound (COH-SR4, COH-SR9, COH-SR16, or COH-SR18) at a concentration of 1 μM, 3 μM, or 5 μM, or AICAR (5-aminoimidazole-4-carboxamideriboside, an AMPK agonist used as positive control) at a concentration of 500 μM, or none of the above (the untreated cells as negative control). Total cell lysates from the untreated cells and the cells treated with a test compound or AICAR were analyzed by Western blot assay using specific antibodies against phospho-AMPK, phospho-ACC, total AMPK and total ACC.

[3] = tested on: HL-60 cells; assay: HL-60 cell cycle, PI flow cytometry; assay type: cell-based, human; settings: for cells in the S phase: 3 μM, control 47%; for viable cells arrested in G0/G1 phase: 48-hour treatment
Experimental: HL-60 cells (1×10^6) were incubated with a test compound (COH-SR4 or COH-SR9) at various concentrations (0.5˜3 μM) for 48 hours, washed and harvested. The cells were then fixed and stained with propodium iodide (P1) and the DNA content was analyzed by flow cytometry. Results of each figure were from 3-4 independent experiments. The cell number in each cell cycle phase was calculated and expressed as overall percentage (FIG. 15A). The percentage of cells in G0/G1 were measured from 0-48-hour treatment with test compounds (FIG. 15B), data expressed as mean±SE.

[4] = COH-SR4 in mice serum, LC-MS/MS; assay type: in vivo, mouse; settings: 4 mg/kg b.w. oral, alternate day, 8 weeks; blood within 2 h of final dose
Experimental: Mice (n=3 each for control and COH-SR4 treatment) were administered either 0.2 mL corn oil or 100 μg COH-SR4/0.2 mL corn oil/mice (4 mg/kg b.w.) by oral gavage on alternate days for 8 weeks. On the last day, the blood was collected within 2 h after final dosage. To 50 μL serum was added 0.5 μL 5 μg/μL 6D-SR4 standard in DMSO and 500 μL ethyl acetate. The samples were vortexed for 1 min and then spun down in a bench-top centrifuge for 2 min. Then 400 μL of the organic layer was collected, evaporated to dryness and redisolved in 500 μL methanol for analysis. After an initial concentration test, 50 μL were taken and diluted to 2 mL with methanol for final analysis. […]
COH-SR4 and 6D-SR4 were separated by HPLC using an Agilent Zorbax 0.5×150 mm C18, 5 μm column with a flow rate of 50 μL/min and a gradient of 65% B to 95% B over 4 min, then 2 min at 95% B and 1 min back to 65% B. Buffer A was 5 mM ammonium formate and buffer B was 5 mM ammonium formate in methanol. The elute from the column was introduced into an Agilent 6410 triple quadrupole tandem mass spectrometer by electrospray ionization (ESI) through a capillary maintained at 4 kV, using 6 L/min nitrogen nebulizing gas at 350° C. and 15 psi, fragmentor voltage=190 V. The following transitions were monitored in positive ion mode: 344>127.1 and 355>130.1 (collision energy=28 V), 344>161.9 and 355>164.9 (C.E.=20 V) for COH-SR4 and 6dSR4. […]

[5] = tested on: Hs600T; assay: Colony formation assay, Hs600T; assay type: cell-based, human; settings: 10 μM, vs untreated control
Experimental: (§1) Cell survival was evaluated using a standard colony-forming assay. […] After 7 or 10 days, adherent colonies were fixed, stained with 0.5% methylene blue for 30 min and colonies were counted using the Innotech Alpha Imager HP (91).

[6] = tested on: HAVSMC, NHDFs, melanocytes; assay: MTT assay, normal cells; assay type: cell-based, human; settings: 24 h and 48 h
Experimental: Cell density measurements were performed using a hemocytometer to count reproductive cells resistant to staining with trypan blue. Approximately 20,000 cells were plated into each well of 96-well flat-bottomed micro-titer plates. After 12 h or 24 h incubation at 37° C., medium containing either COH-SR4 (ranging 0-200 μM) or elesclomol (ranging 0-20 μM) were added to the cells. After 24 h, 48 h or 96 h incubation, 20 μL of 5 mg/mL MTT were introduced to each well and incubated for 2 h. The plates were centrifuged and medium was decanted. Cells were subsequently dissolved in 100 μl DMSO with gentle shaking for 2 h at room temperature, followed by measurement of OD570 (91).

[7] = tested on: PBT018; assay: Glioma ATP viability assay, PBT018; assay type: cell-based; settings: Table 1; 72 hours
Experimental: Cells of each cell line (U251, U87, PBT-017, PBT018, PBT003 and PBT028) were treated with various concentrations (0˜100 μM) of COH-SR4 for 72 hours. Cell viabilities were determined by ATP viability assays. Data were represented as a ratio to vehicle (DMSO) control, and plotted as mean±SEM (n=12) obtained from 2˜3 experiments (FIG. 34A).

[8] = tested on: B16-F0; assay: Colony formation assay, B16-F0; assay type: cell-based, mouse; settings: 10 μM, vs untreated control
Experimental: as §1

| Compound | activity in NCI-60 screening [1] | AMPK activation [2] | cells in the S phase [3] [%] | viable cells arrested in G0/G1 phase [3] [%] | serum concentration [4] [ng/mL] | serum concentration (equivalent) [4] [nM] | colony formation [5] [%] | cytotoxicity in normal cells [6] | IC50 [7] [µM] | colony formation [8] [%] |
| --- | --- | --- | --- | --- | --- | --- | --- | --- | --- | --- |
| Cc1c(Cl)cc(NC(=O)Nc2cc(Cl)cc(Cl)c2)c(O)c1Cl [COH-SR9, 1-(3,5-dichlorophenyl)-3-(3,5-dichloro-2-hydroxy-4-methyphenyl) urea] | active against | Dose-dependent AMPK activation | 13 | 85 | – | – | – | – | – | – |
| O=C(Nc1cc(Cl)cc(Cl)c1)Nc1cc(Cl)cc(Cl)c1 [COH-SR4, 1,3-bis(3,5-dichlorophenyl) urea] | active against | highest potency; also recorded: Dose-dependent AMPK activation | 10 | 85 | 342 ± 44 | 1000 ± 220 | 48±5 | did not cause any significant cytotoxicity | 6.5 | 38±9 |
